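Briefly, cells in 96-well plates were exposed to five compound concentrations for 48 h, and endpoints were estimated by linear interpolation. GI50: concentration for 50% inhibition of growth. TGI: total growth inhibition.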
What was measured:
Test in all cases: NCI tumour cell line growth inhibition, 48 h
MALME-3M melanoma = test system: MALME-3M melanoma
SF-295 CNS = test system: SF-295 CNS
A498 renal = test system: A498 renal
HL-60(TB) leukemia = test system: HL-60(TB) leukemia
HCT-15 colon = test system: HCT-15 colon
U251 CNS = test system: U251 CNS
UACC-62 melanoma = test system: UACC-62 melanoma
CAKI-1 renal = test system: CAKI-1 renal
T-47D breast = test system: T-47D breast
MDA-MB-435 = test system: MDA-MB-435

## CC(C)c1cccc(C(C)C)c1NC(=S)Nc1ccccc1
MALME-3M melanoma
  TGI: > 100 µM
SF-295 CNS
  TGI: > 100 µM
A498 renal
  TGI: > 100 µM
HL-60(TB) leukemia
  TGI: 32.4 µM
HCT-15 colon
  TGI: > 100 µM
U251 CNS
  TGI: > 100 µM
UACC-62 melanoma
  TGI: > 100 µM

## CCCCCCCCCCCCCCCc1ccc(C(=O)C[n+]2ccccc2)cc1
MALME-3M melanoma
  GI50: 1750 nM
  TGI: 4.95 µM
SF-295 CNS
  GI50: 653 nM
  TGI: 14.2 µM
A498 renal
  GI50: 1100 nM
  TGI: 8.33 µM
CAKI-1 renal
  GI50: 1010 nM
  TGI: 3.45 µM
HL-60(TB) leukemia
  GI50: 531 nM
  TGI: 2.52 µM
T-47D breast
  GI50: 1380 nM
  TGI: 3.77 µM
HCT-15 colon
  GI50: 1030 nM
  TGI: 2.56 µM

## Nc1cccc2cc(S(=O)(=O)Nc3ccc(C(=O)O)cc3)ccc12
MALME-3M melanoma
  TGI: > 100 µM
SF-295 CNS
  TGI: > 100 µM
A498 renal
  TGI: > 100 µM
MDA-MB-435
  TGI: > 100 µM
CAKI-1 renal
  TGI: > 100 µM
HL-60(TB) leukemia
  TGI: > 100 µM
T-47D breast
  TGI: > 100 µM
HCT-15 colon
  TGI: > 100 µM
U251 CNS
  TGI: > 100 µM
UACC-62 melanoma
  TGI: > 100 µM

## N=C(N)c1ccc(-c2ccc(-c3ccccc3)o2)cc1
MALME-3M melanoma
  GI50: 1550 nM
  TGI: 3.12 µM
A498 renal
  GI50: 2850 nM
  TGI: 9.46 µM
MDA-MB-435
  GI50: 1660 nM
  TGI: 3.03 µM
CAKI-1 renal
  GI50: 2780 nM
  TGI: 9.85 µM
HL-60(TB) leukemia
  GI50: 1930 nM
  TGI: 4.42 µM
HCT-15 colon
  GI50: 1640 nM
  TGI: 3.24 µM

## CCN(CC)CCSc1nc2c([N+](=O)[O-])cccc2[nH]1
CAKI-1 renal
  TGI: > 100 µM
HL-60(TB) leukemia
  TGI: > 100 µM
HCT-15 colon
  TGI: > 100 µM
UACC-62 melanoma
  TGI: > 100 µM

## COc1ccc(C2C(Cl)C(=O)N2NC(=O)c2ccc(NC(C)=O)cc2)cc1OC (stereo not given)
MALME-3M melanoma
  TGI: > 100 µM
SF-295 CNS
  TGI: > 100 µM
HL-60(TB) leukemia
  TGI: > 100 µM
U251 CNS
  TGI: > 100 µM
UACC-62 melanoma
  TGI: > 100 µM

## O=C(Nc1ccc(-n2cc(-c3ccncc3)c(-c3ccc(O)c(Cl)c3)n2)cc1)c1ccc(Cl)c(Cl)c1
MALME-3M melanoma
  GI50: 2470 nM
  TGI: > 32.5 µM
SF-295 CNS
  GI50: 833 nM
  TGI: 2.26 µM
A498 renal
  GI50: > 32500 nM
  TGI: > 32.5 µM
MDA-MB-435
  GI50: 2060 nM
  TGI: > 32.5 µM
CAKI-1 renal
  GI50: 2210 nM
  TGI: > 32.5 µM
HL-60(TB) leukemia
  GI50: 1390 nM
  TGI: > 32.5 µM
T-47D breast
  GI50: 2370 nM
  TGI: > 32.5 µM
HCT-15 colon
  GI50: 708 nM
  TGI: > 32.5 µM
U251 CNS
  GI50: 693 nM
  TGI: > 32.5 µM
UACC-62 melanoma
  GI50: 2480 nM
  TGI: > 32.5 µM

## CSc1nc(NC2OC(CO)C(O)C(O)C2O)c(N)c(=O)n1C (stereo not given)
MALME-3M melanoma
  TGI: > 100 µM
SF-295 CNS
  TGI: > 100 µM
A498 renal
  TGI: > 100 µM
HL-60(TB) leukemia
  TGI: > 100 µM
HCT-15 colon
  TGI: > 100 µM
U251 CNS
  TGI: > 100 µM
UACC-62 melanoma
  TGI: > 100 µM

## CC(C)=CCC/C(C)=C/CC/C(C)=C/C(O)c1ccccc1 (stereo not given)
MALME-3M melanoma
  TGI: 34.5 µM
SF-295 CNS
  TGI: 33.8 µM
A498 renal
  TGI: 34.2 µM
CAKI-1 renal
  TGI: > 10 µM
HL-60(TB) leukemia
  TGI: 43.8 µM
HCT-15 colon
  TGI: 32.8 µM
U251 CNS
  TGI: 33.5 µM
UACC-62 melanoma
  TGI: 30.9 µM

## NC(=O)OCc1c(O)c2c(c(O)c1COC(N)=O)C(=O)C=CC2=O
MALME-3M melanoma
  TGI: > 100 µM
SF-295 CNS
  TGI: > 100 µM
A498 renal
  TGI: > 100 µM
CAKI-1 renal
  TGI: > 100 µM
HL-60(TB) leukemia
  TGI: > 100 µM
HCT-15 colon
  TGI: > 100 µM
U251 CNS
  TGI: > 100 µM
UACC-62 melanoma
  TGI: > 100 µM

## CNC1=C(C)C(=O)C2=C(C1=O)C(COC(N)=O)C1(OC)C3NC3CN21 (stereo not given)
MALME-3M melanoma
  TGI: 3.61 µM
SF-295 CNS
  TGI: 10.5 µM
A498 renal
  TGI: 2.35 µM
MDA-MB-435
  TGI: 5.67 µM
CAKI-1 renal
  TGI: 2.78 µM
HL-60(TB) leukemia
  TGI: > 100 µM
T-47D breast
  TGI: 18.1 µM
HCT-15 colon
  TGI: 3.52 µM
U251 CNS
  TGI: 15 µM
UACC-62 melanoma
  TGI: 1.55 µM
